Test results taken from patent publication US12624034B2, “Non-covalent modifiers of AKT1 and uses thereof” (Terremoto Biosciences, Inc., priority 2023, dated 2026).
Where two headings read alike, the source gives them in different places.

How the values were obtained:
[1] = molecular target: T1, AKT1 WT (Homo sapiens, UniProt P31749); assay: Live cell AKT1 WT target engagement by NanoBRET competitive probe displacement in HEK293 cells; format: binding; conditions: 2 h at 37° C., read-out: AKT1 WT IC50
T1 construct: expressed in transfected cells; host or cells: HEK293
Method: (§1) Determining live cell AKT1 E17K, AKT1 WT, and AKT2 target engagement by NanoBRET competitive probe displacement. […] Briefly, HEK293 cells were transfected with plasmids encoding kinase-NanoLuciferase fusion proteins overnight. Cells were then treated with serial dilutions of compound and an ˜EC50 concentration of fluorescently-tagged ATP-competitive tracer (Promega). After incubation for 2 h at 37° C., luciferase substrate and extracellular luciferase inhibitor were added to all wells, and luminescent intensity at 460 nm and 600 nm were measured on a multimode plate-reader. The ratio of E600/E460 was calculated to give the tracer engagement signal (BRET). IC50 values were calculated by fitting BRET values to a log(inhibitor) vs. response Hill equation.

[2] = molecular target: T2, AKT2 (Homo sapiens, UniProt P31751); assay: Live cell AKT2 target engagement by NanoBRET competitive probe displacement in HEK293 cells; format: binding; conditions: 2 h at 37° C., read-out: AKT2 IC50
T2 construct: expressed in transfected cells; host or cells: HEK293
Method: as §1

[3] = NanoBRET live cell target engagement, HEK293 cells
[4] = NanoBRET competitive probe displacement, live HEK293 cells

T2 sequence (P31751 whole entry): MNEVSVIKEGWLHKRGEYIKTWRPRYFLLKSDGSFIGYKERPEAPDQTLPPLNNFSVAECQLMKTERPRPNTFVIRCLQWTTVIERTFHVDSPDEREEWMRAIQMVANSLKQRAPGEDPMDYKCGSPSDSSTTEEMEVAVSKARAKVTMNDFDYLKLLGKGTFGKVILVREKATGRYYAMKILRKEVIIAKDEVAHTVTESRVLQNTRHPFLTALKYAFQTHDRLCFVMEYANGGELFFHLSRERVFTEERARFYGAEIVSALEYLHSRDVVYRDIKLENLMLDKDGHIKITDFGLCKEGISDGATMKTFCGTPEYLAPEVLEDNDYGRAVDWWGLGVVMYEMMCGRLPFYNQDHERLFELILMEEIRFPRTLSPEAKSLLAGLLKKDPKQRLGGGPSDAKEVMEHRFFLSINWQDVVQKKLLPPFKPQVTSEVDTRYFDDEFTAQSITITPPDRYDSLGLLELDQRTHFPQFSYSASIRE
T1 sequence (P31749 whole entry): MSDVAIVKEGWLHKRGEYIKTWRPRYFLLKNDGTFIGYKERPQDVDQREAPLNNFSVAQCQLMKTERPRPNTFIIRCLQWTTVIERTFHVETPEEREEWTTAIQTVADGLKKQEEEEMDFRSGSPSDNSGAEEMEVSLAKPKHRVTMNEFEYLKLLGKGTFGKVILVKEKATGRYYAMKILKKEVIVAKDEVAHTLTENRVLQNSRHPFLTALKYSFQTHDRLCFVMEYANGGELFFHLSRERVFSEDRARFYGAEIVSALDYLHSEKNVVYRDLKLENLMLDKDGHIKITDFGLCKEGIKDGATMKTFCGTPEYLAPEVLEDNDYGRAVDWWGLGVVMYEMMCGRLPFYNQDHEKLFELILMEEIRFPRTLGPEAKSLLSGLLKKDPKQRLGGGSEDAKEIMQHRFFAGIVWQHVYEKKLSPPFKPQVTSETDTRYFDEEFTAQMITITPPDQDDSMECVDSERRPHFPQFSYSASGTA

IC50 [1, 3]	IC50 [2, 3]	IC50 [1, 4]	IC50 [2, 4]	Structure (SMILES)
0.0946 µM	1.91 µM			Nc1ncccc1-c1nc2ccc(-n3cccn3)nc2n1-c1ccc2c(c1)CC[C@@H]2NC(=O)c1cccn2ccnc12 [Compound 161]
		0.107 µM	3.18 µM	Cn1c(C(=O)N[C@H]2CCc3cc(-n4c(-c5cccnc5N)nc5ccc(-n6nccn6)nc54)ccc32)cnc1C1CC1 [Compound 540]
> 1 µM	> 10 µM			Nc1ncccc1-c1nc2ccc(-n3cccn3)nc2n1-c1ccc2c(c1)CC[C@@H]2n1cc(C2CNC2)nn1 [Compound 250]
0.075 µM	8.23 µM			Cc1cnc(-c2ccc3nc(-c4cccnc4N)n(-c4ccc5c(c4)CC[C@@H]5NC(=O)c4nccnc4C)c3n2)s1 [Compound 243, (S)—N-(5-(2-(2-aminopyridin-3-yl)-5-(5-methylthiazol-2-yl)-3H-imidazo[4,5-b]pyridin-3-yl)-2,3-dihydro-1H-inden-1-yl)-3-methylpyrazine-2-carboxamide]
0.0696 µM	1.38 µM			Nc1ncccc1-c1nc2ccc(-n3cccn3)nc2n1-c1ccc2c(c1)CC[C@@H]2NC(=O)c1ccnn1C(F)F [Compound 170]
0.0183 µM	0.468 µM			Cn1nc(C(=O)N[C@H]2CCc3cc(-n4c(-c5cccnc5N)nc5ccc(-n6cccn6)nc54)ccc32)cc1C(F)F [Compound 266]
		0.076 µM	2.68 µM	Cc1ccc(C(=O)N[C@H]2CCc3cc(-n4c(-c5cccnc5N)nc5ccc(-n6ncnc6C)nc54)ccc32)cn1 [Compound 418, (S)—N-(5-(2-(2-aminopyridin-3-yl)-5-(5-methyl-1H-1,2,4-triazol-1-yl)-3H-imidazo[4,5-b]pyridin-3-yl)-2,3-dihydro-1H-inden-1-yl)-6-methylnicotinamide]
		0.0197 µM	0.409 µM	COc1ccn(-c2ccc3nc(-c4cccnc4N)n(-c4ccc5c(c4)CC[C@@H]5NC4CCN(C(=O)C5CC5)CC4F)c3n2)n1 (some centres unmarked) [Compound 512]
0.0405 µM	0.521 µM			COc1ncncc1C(=O)N[C@H]1CCc2cc(-n3c(-c4cccnc4N)nc4ccc(-n5cccn5)nc43)ccc21 [Compound 157]
0.0029 µM	0.0222 µM			COc1cc(C(=O)N[C@H]2CCc3cc(-n4c(-c5cccnc5N)nc5ccc(-n6cccn6)nc54)ccc32)cnn1 [Compound 377]
0.013 µM	0.0797 µM			Nc1ncccc1-c1nc2ccc(-n3cccn3)nc2n1-c1ccc2c(c1)CC[C@@H]2NC(=O)c1cc2ccccn2n1 [Compound 175]
0.12 µM	4.29 µM			Nc1ncccc1-c1nc2ccc(-n3cccn3)nc2n1-c1ccc2c(c1)CCC2n1cccn1 (centres unmarked) [Compound 325, 3-(3-(1-(1H-pyrazol-1-yl)-2,3-dihydro-1H-inden-5-yl)-5-(1H-pyrazol-1-yl)-3H-imidazo[4,5-b]pyridin-2-yl)pyridin-2-amine]
		0.0172 µM	0.32 µM	Nc1ncccc1-c1nc2ccc(C#CC3CC3)nc2n1-c1ccc2c(c1)CC[C@@H]2n1cnnc1 [Compound 528]
0.228 µM	5.85 µM			Nc1ncccc1-c1nc2ccc(-n3cccn3)nc2n1-c1ccc2c(c1)CC[C@@H]2NC(=O)c1cccnc1-n1cccn1 [Compound 90]
		0.225 µM	2.37 µM	Nc1ncccc1-c1nc2ccc(-n3cccn3)nc2n1-c1ccc2c(c1)CC[C@@H]2NC1CCN(C(=O)C2CC2)C1 (some centres unmarked) [Compound 462]
		0.0113 µM	0.455 µM	Nc1ncccc1-c1nc2ccc(-n3ccc(OC4COC4)n3)nc2n1-c1ccc2c(c1)CC[C@@H]2NC1CCN(C(=O)C2CC2)CC1 [Compound 567]
0.204 µM	1.21 µM			N#Cc1cc(C(=O)N[C@H]2CCc3cc(-n4c(-c5cccnc5N)nc5ccc(-n6cccn6)nc54)ccc32)ccc1O [Compound 259]
0.0345 µM	0.132 µM			Nc1ncccc1-c1nc2ccc(-n3cccn3)nc2n1-c1ccc2c(c1)CC[C@@H]2NC(=O)c1ccn2nccc2n1 [Compound 306]
		0.00546 µM	0.556 µM	Cc1nc(C(F)F)sc1C(=O)N[C@H]1CCc2cc(-n3c(-c4cccnc4N)nc4ccc(-n5nccn5)nc43)ccc21 [Compound 541]
		0.043 µM	0.62 µM	Nc1ncccc1-c1nc2ccc(-n3cccn3)nc2n1-c1ccc2c(c1)CC[C@@H]2NC1CCc2cc(O)ccc21 (some centres unmarked) [Compound 498]
		0.00183 µM	0.0378 µM	CN1CCN(c2ccn(-c3ccc4nc(-c5cccnc5N)n(-c5ccc6c(c5)CC[C@@H]6NC5CCN(C(=O)C6CC6)CC5)c4n3)n2)CC1 [Compound 563]
0.146 µM	1.4 µM			Cn1nccc1Cc1nncn1[C@H]1CCc2cc(-n3c(-c4cccnc4N)nc4ccc(-n5cccn5)nc43)ccc21 [Compound 222]

IC50 [1, 3]	IC50 [2, 3]	IC50 [1, 4]	IC50 [2, 4]	Structure (SMILES)
0.0428 µM	1.14 µM			Cc1ncc(C(=O)N[C@H]2CCc3cc(-n4c(-c5cccnc5N)nc5ccc(-n6nccn6)nc54)ccc32)c(C)n1 [Compound 92]
0.0147 µM	0.0953 µM			Cn1ccc(-c2cn([C@H]3CCc4cc(-n5c(-c6cccnc6N)nc6ccc(-n7cccn7)nc65)ccc43)nn2)n1 [Compound 197]
		0.0038 µM	0.0405 µM	CN1CCN(c2ccn(-c3ccc4nc(-c5cccnc5N)n(-c5ccc6c(c5)CC[C@@H]6NC5CCN(c6ccn(C)n6)CC5)c4n3)n2)CC1 [Compound 598]
0.00931 µM	0.0724 µM			CC(=O)Nc1ccc(C(=O)N[C@H]2CCc3cc(-n4c(-c5cccnc5N)nc5ccc(-n6cccn6)nc54)ccc32)cc1 [Compound 196]
0.163 µM	4.22 µM			Nc1ncccc1-c1nc2ccc(-n3cccn3)nc2n1-c1ccc2c(c1)CC[C@@H]2NC(=O)c1ccc(O)nc1 [Compound 297]
		0.0168 µM	0.65 µM	CN(C)c1ccn(-c2ccc3nc(-c4cccnc4N)n(-c4ccc5c(c4)CC[C@@H]5NC4CCN(c5ccn(C)n5)CC4)c3n2)n1 [Compound 589]
0.0411 µM	1.01 µM			Cc1ccc(CN(C)[C@H]2CCc3cc(-n4c(-c5cccnc5N)nc5ccc(-n6cccn6)nc54)ccc32)cn1 [Compound 168]
		0.00986 µM	0.221 µM	COC1CCN(c2ccn(-c3ccc4nc(-c5cccnc5N)n(-c5ccc6c(c5)CC(F)[C@@H]6NC5CCN(C(=O)C6CC6)CC5)c4n3)n2)CC1 (some centres unmarked) [Compound 546]
0.0116 µM	0.165 µM			Nc1ncccc1-c1nc2ccc(-n3cccn3)nc2n1-c1ccc2c(c1)CC[C@@H]2n1ccnc1 [Compound 273, (S)-3-(3-(1-(1H-imidazol-1-yl)-2,3-dihydro-1H-inden-5-yl)-5-(1H-pyrazol-1-yl)-3H-imidazo[4,5-b]pyridin-2-yl)pyridin-2-amine]
0.0896 µM	5.85 µM			Cc1ncccc1S(=O)(=O)N[C@H]1CCc2cc(-n3c(-c4cccnc4N)nc4ccc(-n5cccn5)nc43)ccc21 [Compound 139]
0.0959 µM	2.85 µM			Cc1ncccc1C(=O)N[C@H]1CCc2cc(-n3c(-c4cccnc4N)nc4ccc(-c5ncco5)nc43)ccc21 [Compound 229]
0.0321 µM	1.16 µM			Nc1ncccc1-c1nc2ccc(-n3cccn3)nc2n1-c1ccc2c(c1)CC[C@@H]2NCc1ccnc(OC(F)(F)F)c1 [Compound 305]
0.0119 µM	0.00802 µM			Cc1cc(-n2cccn2)nc2c1nc(-c1cccnc1N)n2-c1ccc2c(c1)CC[C@@H]2NC(=O)c1ccc(C(F)F)nc1 [Compound 101]
0.0278 µM	0.389 µM			Cc1csc(-c2ccc3nc(-c4cccnc4N)n(-c4ccc5c(c4)CC[C@@H]5NC(=O)c4ccn(C)n4)c3n2)n1 [Compound 374, (S)—N-(5-(2-(2-aminopyridin-3-yl)-5-(4-methylthiazol-2-yl)-3H-imidazo[4,5-b]pyridin-3-yl)-2,3-dihydro-1H-inden-1-yl)-1-methyl-1H-pyrazole-3-carboxamide]
0.00942 µM	0.0531 µM			CCc1cc(C(=O)N[C@H]2CCc3cc(-n4c(-c5cccnc5N)nc5ccc(-n6cccn6)nc54)ccc32)ccn1 [Compound 204]
		0.036 µM	1.29 µM	COCC#Cc1ccc2nc(-c3cccnc3N)n(-c3ccc4c(c3)CC[C@@H]4NC(=O)c3ccc(C(F)F)nc3)c2n1 [Compound 409]
		0.0316 µM	0.973 µM	Nc1ncccc1-c1nc2ccc(-n3ccc(OC4CCOCC4)n3)nc2n1-c1ccc2c(c1)CC[C@@H]2NC1CCN(C(=O)C2CC2)CC1 [Compound 517]
		0.0389 µM	3.14 µM	Nc1ncccc1-c1nc2ccc(-n3ccc(C4CC4)n3)nc2n1-c1ccc2c(c1)CC(F)[C@@H]2NC1CCN(C(=O)C2CC2)CC1 (some centres unmarked) [Compound 480]
		0.0259 µM	1.57 µM	Cc1ccc(C(=O)N[C@H]2CCc3cc(-n4c(-c5cccnc5N)nc5cc(F)c(-n6nccn6)nc54)ccc32)cn1 [Compound 466]
0.00529 µM	0.0152 µM			Nc1ncccc1-c1nc2ccc(-n3cccn3)nc2n1-c1ccc2c(c1)CC[C@@H]2NC(=O)c1ccc(OC(F)(F)F)nc1 [Compound 68]
		0.102 µM	6.24 µM	Cc1nnc(-c2ccc3nc(-c4cccnc4N)n(-c4ccc5c(c4)CC[C@@H]5NC4CCN(C(=O)C5CC5)CC4)c3n2)s1 [Compound 516]
